Test results from ChEMBL document CHEMBL5505990, “Novel aroyl guanidine anti-trypanosomal compounds that exert opposing effects on parasite energy metabolism” (Eur J Med Chem, 2024).
Activity calls are given as the source filed them. No cut-off for these calls is given here.

Columns and labels:
[1] = Selectivity ratio of IC50 for HEK293 cells to IC50 for Trypanosoma brucei brucei; format: toxicity; conditions: human, read-out: Ratio IC50
[2] = system: Trypanosoma brucei brucei; assay: Anti-trypanosomal activity against Trypanosoma brucei brucei; format: functional, organism-based
[3] = Cytotoxicity against HEK293 cells; format: toxicity, cell-based; conditions: human
[4] = system: Trypanosoma brucei brucei; assay: Opposing effect on metabolism in bloodstream Trypanosoma brucei brucei 427 at 1 uM incubated for 5 hrs by LC-MS based principal component analysis; format: functional, organism-based
[5] = system: Trypanosoma brucei brucei; assay: Effect on nucleotide metabolism in bloodstream Trypanosoma brucei brucei 427 at 1 uM incubated for 5 hrs by pathway enrichment analysis; format: functional
[6] = system: Trypanosoma brucei brucei; assay: Effect on carbohydrate metabolism in bloodstream Trypanosoma brucei brucei 427 at 1 uM incubated for 5 hrs by pathway enrichment analysis; format: functional
[7] = system: Trypanosoma brucei brucei; assay: Disruption of nucleotide metabolism in bloodstream Trypanosoma brucei brucei 427 assessed as depletion of ATP at 1 uM incubated for 5 hrs; format: functional, organism-based
[8] = system: Trypanosoma brucei brucei; assay: Disruption of nucleotide metabolism in bloodstream Trypanosoma brucei brucei 427 assessed as accumulation of NDP at 1 uM incubated for 5 hrs; format: functional, organism-based
[9] = system: Trypanosoma brucei brucei; assay: Disruption of nucleotide metabolism in bloodstream Trypanosoma brucei brucei 427 assessed as accumulation of NMP at 1 uM incubated for 5 hrs; format: functional, organism-based
[10] = system: Trypanosoma brucei brucei; assay: Disruption of nucleotide metabolism in bloodstream Trypanosoma brucei brucei 427 assessed as accumulation of nucleosides at 1 uM incubated for 5 hrs; format: functional, organism-based
[11] = system: Trypanosoma brucei brucei; assay: Disruption of nucleotide metabolism in bloodstream Trypanosoma brucei brucei 427 assessed as accumulation of purine/pyrimidine base forms at 1 uM incubated for 5 hrs; format: functional, organism-based
[12] = system: Trypanosoma brucei brucei; assay: Disruption of nucleotide metabolism in bloodstream Trypanosoma brucei brucei 427 assessed as depletion of NTP at 1 uM incubated for 5 hrs; format: functional, organism-based
[13] = system: Trypanosoma brucei brucei; assay: Disruption of nucleotide metabolism in bloodstream Trypanosoma brucei brucei 427 assessed as accumulation of AMP at 1 uM incubated for 5 hrs; format: functional, organism-based
[14] = system: Trypanosoma brucei brucei; assay: Induction of glycolysis in bloodstream Trypanosoma brucei brucei 427 assessed as increase in pyruvate level at 1 uM incubated for 5 hrs; format: functional
[15] = system: Trypanosoma brucei brucei; assay: Induction of glycolysis in bloodstream Trypanosoma brucei brucei 427 assessed as increase in glycerol level at 1 uM incubated for 5 hrs; format: functional
[16] = system: Trypanosoma brucei brucei; assay: Induction of glycolysis in bloodstream Trypanosoma brucei brucei 427 assessed as increase in succinate level at 1 uM incubated for 5 hrs; format: functional
[17] = system: Trypanosoma brucei brucei; assay: Downregulation of 6-phosphogluconate level in bloodstream Trypanosoma brucei brucei 427 assessed as increase in pyruvate level at 1 uM incubated for 5 hrs; format: functional
[18] = system: Trypanosoma brucei brucei; assay: Downregulation of NADPH level in bloodstream Trypanosoma brucei brucei 427 assessed as increase in pyruvate level at 1 uM incubated for 5 hrs; format: functional
[19] = system: Trypanosoma brucei brucei; assay: Upregulation of carnitine to acetyl-carnitine ratio in bloodstream Trypanosoma brucei brucei 427 assessed as increase in pyruvate level at 1 uM incubated for 5 hrs; format: functional
[20] = system: Trypanosoma brucei brucei; assay: Upregulation of glycolytic flux in bloodstream Trypanosoma brucei brucei 427 assessed as increase in pyruvate level at 1 uM incubated for 5 hrs; format: functional
[21] = system: Trypanosoma brucei brucei; assay: Effect on free CoA level in bloodstream Trypanosoma brucei brucei 427 assessed as increase in pyruvate level at 1 uM incubated for 5 hrs; format: functional
[22] = system: Trypanosoma brucei brucei; assay: Effect on free carnitine level in bloodstream Trypanosoma brucei brucei 427 assessed as increase in pyruvate level at 1 uM incubated for 5 hrs; format: functional
[23] = system: Trypanosoma brucei brucei; assay: Effect on acetyl-CoA level in bloodstream Trypanosoma brucei brucei 427 assessed as increase in pyruvate level at 1 uM incubated for 5 hrs; format: functional
[24] = system: Trypanosoma brucei brucei; assay: Effect on palmitoyl-CoA level in bloodstream Trypanosoma brucei brucei 427 assessed as increase in pyruvate level at 1 uM incubated for 5 hrs; format: functional
[25] = system: Trypanosoma brucei brucei; assay: Effect on stearoyl-CoA level in bloodstream Trypanosoma brucei brucei 427 assessed as increase in pyruvate level at 1 uM incubated for 5 hrs; format: functional
[26] = system: Trypanosoma brucei brucei; assay: Effect on acetyl-carnitine level in bloodstream Trypanosoma brucei brucei 427 assessed as increase in pyruvate level at 1 uM incubated for 5 hrs; format: functional
[27] = system: Trypanosoma brucei brucei; assay: Disruption of nucleotide metabolism in bloodstream Trypanosoma brucei brucei 427 assessed as depletion of GTP at 1 uM incubated for 5 hrs; format: functional, organism-based
[28] = system: Trypanosoma brucei brucei; assay: Disruption of nucleotide metabolism in bloodstream Trypanosoma brucei brucei 427 assessed as depletion of UTP at 1 uM incubated for 5 hrs; format: functional, organism-based
[29] = system: Trypanosoma brucei brucei; assay: Disruption of nucleotide metabolism in bloodstream Trypanosoma brucei brucei 427 assessed as depletion of CTP at 1 uM incubated for 5 hrs; format: functional, organism-based
[30] = system: Trypanosoma brucei brucei; assay: Disruption of nucleotide metabolism in bloodstream Trypanosoma brucei brucei 427 assessed as depletion of deoxy-ATP at 1 uM incubated for 5 hrs; format: functional, organism-based
[31] = system: Trypanosoma brucei brucei; assay: Disruption of nucleotide metabolism in bloodstream Trypanosoma brucei brucei 427 assessed as depletion of deoxy-GTP at 1 uM incubated for 5 hrs; format: functional, organism-based
[32] = system: Trypanosoma brucei brucei; assay: Disruption of nucleotide metabolism in bloodstream Trypanosoma brucei brucei 427 assessed as depletion of deoxy-UTP at 1 uM incubated for 5 hrs; format: functional, organism-based
[33] = system: Trypanosoma brucei brucei; assay: Disruption of nucleotide metabolism in bloodstream Trypanosoma brucei brucei 427 assessed as depletion of deoxy-CTP at 1 uM incubated for 5 hrs; format: functional, organism-based
[34] = system: Trypanosoma brucei brucei; assay: Disruption of nucleotide metabolism in bloodstream Trypanosoma brucei brucei 427 assessed as depletion of ATP at 1 uM incubated for 5 hrs relative to control; format: functional
[35] = system: Trypanosoma brucei brucei; assay: Anti-trypanosomal activity against Trypanosoma brucei brucei at 10 uM relative to control; format: functional
[36] = system: Trypanosoma brucei brucei; assay: Disruption of nucleotide metabolism in bloodstream Trypanosoma brucei brucei 427 assessed as fold increase in AMP at 1 uM incubated for 5 hrs; format: functional
[37] = Cytotoxicity against HEK293 cells assessed as inhibition of cell viability at 83 uM relative to control; format: toxicity, cell-based; conditions: human, read-out: INH
[38] = system: Trypanosoma brucei brucei; assay: Anti-trypanosomal activity against Trypanosoma brucei brucei at 42 uM relative to control; format: functional
[39] = system: Trypanosoma brucei brucei; assay: Anti-trypanosomal activity against Trypanosoma brucei brucei incubated for 48 hrs by alamar blue assay; format: functional, organism-based

| Structure (SMILES) | selectivity ratio [1] | IC50 [2] | IC50 [3] | Activity [8] | Activity [9] | Activity [10] | Activity [11] | Activity [14] | Activity [15] | Activity [16] | Activity [17] | Activity [18] | Activity [19] | Activity [20] | Activity [21] | Activity [22] | Activity [23] | Activity [24] | Activity [25] | Activity [26] | other results |
| --- | --- | --- | --- | --- | --- | --- | --- | --- | --- | --- | --- | --- | --- | --- | --- | --- | --- | --- | --- | --- | --- |
| CCc1ccccc1/N=C(\NCCN1CCOCC1)NC(=O)c1ccc(C)cc1 | > 19 | 4.4 µM | > 83 µM | inactive | inactive | inactive | inactive | inactive | inactive | inactive | inactive | inactive | inactive | inactive | inactive | inactive | Active | inactive | inactive | inactive | Activity [4]: Active; Activity [5]: Active; Activity [6]: Active; Activity [7]: inactive; Activity [12]: inactive; Activity [13]: inactive |
| Cc1cc(Br)ccc1/N=C(\NCCN1CCOCC1)NC(=O)c1ccccc1 | > 33 | 2.5 µM | > 83 µM | Active | Active | Active | Active | Active | Active | Active | Active | Active | Active | Active | Active | Active | inactive | Active | Active | Active | Activity [4]: Active; Activity [5]: Active; Activity [6]: Active; Activity [27]: Active; Activity [28]: Active; Activity [29]: Active; Activity [30]: Active; Activity [31]: Active; Activity [32]: Active; Activity [33]: Active; Activity [34]: 25% |
| Cc1ccc(/N=C(\NCCN2CCOCC2)NC(=O)c2ccccc2)c(Cl)c1 |  |  |  |  |  |  |  | Active | Active | Active | Active | Active | Active | Active | Active | Active | inactive | Active | Active | Active | inhibition at 10 µM [35]: 54%; Activity [7]: Active; Activity [27]: Active; Activity [28]: Active; Activity [29]: Active; Activity [30]: Active; Activity [31]: Active; Activity [32]: Active; Activity [33]: Active; fold change (FC) [36]: 7 |
| CCc1ccccc1/N=C(\NCCN1CCOCC1)NC(=O)c1cccc(Cl)c1 |  |  |  |  |  |  |  |  |  |  |  |  |  |  |  |  |  |  |  |  | inhibition at 10 µM [35]: 87%; cytotoxicity at 83 µM [37]: 67%; inhibition at 42 µM [38]: 68% |
| CCc1ccccc1/N=C(\NCCN1CCOCC1)NC(=O)c1ccccc1 | ≥ 29 |  |  | inactive | inactive | inactive | inactive | inactive | inactive | inactive | inactive | inactive | inactive | inactive | inactive | inactive | Active | inactive | inactive | inactive | IC50 [39]: 2.6 µM; Activity [12]: inactive |
